Measurements from PubChem BioAssay AID1918936 (Molecular Pharmacology Branch, DTP, NCI, 2023).

System: 349418-098-R-PDC complex spheroid viability
Test: Anticancer human tumor 349418-098-R-PDC patient-derived lung adenocarcinoma cell line growth inhibition
Conditions: for IC50: curve of first compound; for viability, T/C: stronger effect = lower value; active means viability on the fitted dose curve at most 10% of control; inactive means the rest
In short: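 Drug combinations with the LSD1 inhibitor iadademstat tested on tumor cells co-cultured as spheroids with endothelial cells and mesenchymal stem cells. Concentrations descended in half-log increments from clinical Cmax or 10 microM.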

[1] = second compound 0.1 µM, first compound 0.00316 µM
[2] = second compound 0.1 µM, first compound 0.01 µM
[3] = second compound 0.1 µM, first compound 0.0316 µM
[4] = second compound 0.1 µM, first compound 0.1 µM
[5] = second compound 0.316 µM, first compound 0.00316 µM
[6] = second compound 0.316 µM, first compound 0.01 µM
[7] = second compound 0.316 µM, first compound 0.0316 µM
[8] = second compound 0.316 µM, first compound 0.1 µM
[9] = second compound 1 µM, first compound 0.00316 µM
[10] = second compound 1 µM, first compound 0.01 µM
[11] = second compound 1 µM, first compound 0.0316 µM
[12] = second compound 1 µM, first compound 0.1 µM
[13] = second compound 3.16 µM, first compound 0.00316 µM
[14] = second compound 3.16 µM, first compound 0.01 µM
[15] = second compound 3.16 µM, first compound 0.0316 µM
[16] = second compound 3.16 µM, first compound 0.1 µM
[17] = second compound 10 µM, first compound 0.00316 µM
[18] = second compound 10 µM, first compound 0.01 µM
[19] = second compound 10 µM, first compound 0.0316 µM
[20] = second compound 10 µM, first compound 0.1 µM
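Further: spheroids exposed to agents for seven days before readout.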
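Wherever viability, T/C is given: 100% = DMSO vehicle control wells.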

COc1cc(Nc2ncc3c(n2)-c2ccc(Cl)cc2C(c2c(F)cccc2OC)=NC3)ccc1C(=O)O + NC1CC1c1ccc(-c2cccc(O)c2)cc1
53.9 nM: IC50 (second compound 1 µM)
69.9 nM: IC50 (second compound 0.316 µM)
26 nM: IC50 (second compound 0.1 µM)
inactive: viability, T/C [1] 75.4% | viability, T/C [2] 53.7% | viability, T/C [3] 50.2% | viability, T/C [4] 48.7% | viability, T/C (second compound 0.1 µM, first compound 0.316 µM) 47.5% | viability, T/C (second compound 0.1 µM, first compound 1 µM) 38.7% | viability, T/C [5] 74% | viability, T/C [6] 54.4% | viability, T/C [7] 55.4% | viability, T/C [8] 51% | viability, T/C (second compound 0.316 µM, first compound 0.316 µM) 45.8% | viability, T/C (second compound 0.316 µM, first compound 1 µM) 38.2% | viability, T/C [9] 79.1% | viability, T/C [10] 54.5% | viability, T/C [11] 51.8% | viability, T/C [12] 55.4% | viability, T/C (second compound 1 µM, first compound 0.316 µM) 50.4% | viability, T/C (second compound 1 µM, first compound 1 µM) 35.2% | viability, T/C [13] 73.2% | viability, T/C [14] 47.5% | viability, T/C [15] 59.6% | viability, T/C [16] 47.5% | viability, T/C (second compound 3.16 µM, first compound 0.316 µM) 43.7% | viability, T/C (second compound 3.16 µM, first compound 1 µM) 31.1% | viability, T/C [17] 62.1% | viability, T/C [18] 44.7% | viability, T/C [19] 55.1% | viability, T/C [20] 49.1% | viability, T/C (second compound 10 µM, first compound 0.316 µM) 34.4% | viability, T/C (second compound 10 µM, first compound 1 µM) 25.4%
57.8 nM: IC50 (second compound 3.16 µM)
42.9 nM: IC50 (second compound 10 µM)

Cn1ncnc1C1c2n[nH]c(=O)c3cc(F)cc(c23)NC1c1ccc(F)cc1 (stereo not given) + NC1CC1c1ccc(-c2cccc(O)c2)cc1
inactive: viability, T/C (second compound 0.1 µM, first compound 0.000316 µM) 115% | viability, T/C (second compound 0.1 µM, first compound 0.001 µM) 105% | viability, T/C [1] 112% | viability, T/C [2] 105% | viability, T/C [3] 101% | viability, T/C [4] 102% | viability, T/C (second compound 0.316 µM, first compound 0.000316 µM) 112% | viability, T/C (second compound 0.316 µM, first compound 0.001 µM) 110% | viability, T/C [5] 111% | viability, T/C [6] 104% | viability, T/C [7] 106% | viability, T/C [8] 101% | viability, T/C (second compound 1 µM, first compound 0.000316 µM) 119% | viability, T/C (second compound 1 µM, first compound 0.001 µM) 112% | viability, T/C [9] 106% | viability, T/C [10] 107% | viability, T/C [11] 108% | viability, T/C [12] 101% | viability, T/C (second compound 3.16 µM, first compound 0.000316 µM) 114% | viability, T/C (second compound 3.16 µM, first compound 0.001 µM) 117% | viability, T/C [13] 105% | viability, T/C [14] 115% | viability, T/C [15] 103% | viability, T/C [16] 103% | viability, T/C (second compound 10 µM, first compound 0.000316 µM) 99.1% | viability, T/C (second compound 10 µM, first compound 0.001 µM) 100% | viability, T/C [17] 98.9% | viability, T/C [18] 96.9% | viability, T/C [19] 90.9% | viability, T/C [20] 86.8%
> 100 nM: IC50 (second compound 0.1 µM) | IC50 (second compound 0.316 µM) | IC50 (second compound 1 µM) | IC50 (second compound 3.16 µM) | IC50 (second compound 10 µM)

NS(=O)(=O)OCC1CC(n2ccc3c(NC4CCc5ccccc54)ncnc32)CC1O (stereo not given) + NC1CC1c1ccc(-c2cccc(O)c2)cc1
38 nM: IC50 (second compound 10 µM)
active: viability, T/C (second compound 0.1 µM, first compound 0.3 µM) 11.9% | viability, T/C (second compound 0.1 µM, first compound 0.949 µM) 5.29% | viability, T/C (second compound 0.1 µM, first compound 3 µM) 4.99% | viability, T/C (second compound 0.316 µM, first compound 0.3 µM) 12.4% | viability, T/C (second compound 0.316 µM, first compound 0.949 µM) 5.84% | viability, T/C (second compound 0.316 µM, first compound 3 µM) 4.12% | viability, T/C (second compound 1 µM, first compound 0.949 µM) 5.2% | viability, T/C (second compound 1 µM, first compound 3 µM) 4.27% | viability, T/C (second compound 3.16 µM, first compound 0.949 µM) 5.08% | viability, T/C (second compound 3.16 µM, first compound 3 µM) 4.44% | viability, T/C (second compound 10 µM, first compound 0.949 µM) 4.94% | viability, T/C (second compound 10 µM, first compound 3 µM) 2.73%
59.1 nM: IC50 (second compound 0.316 µM)
60.7 nM: IC50 (second compound 3.16 µM)
59.6 nM: IC50 (second compound 1 µM)
inactive: viability, T/C (second compound 0.1 µM, first compound 0.00949 µM) 116% | viability, T/C (second compound 0.1 µM, first compound 0.03 µM) 86.6% | viability, T/C (second compound 0.1 µM, first compound 0.0949 µM) 30.5% | viability, T/C (second compound 0.316 µM, first compound 0.00949 µM) 120% | viability, T/C (second compound 0.316 µM, first compound 0.03 µM) 82.3% | viability, T/C (second compound 0.316 µM, first compound 0.0949 µM) 26.6% | viability, T/C (second compound 1 µM, first compound 0.00949 µM) 124% | viability, T/C (second compound 1 µM, first compound 0.03 µM) 77% | viability, T/C (second compound 1 µM, first compound 0.0949 µM) 31.9% | viability, T/C (second compound 1 µM, first compound 0.3 µM) 11.3% | viability, T/C (second compound 3.16 µM, first compound 0.00949 µM) 124% | viability, T/C (second compound 3.16 µM, first compound 0.03 µM) 81.6% | viability, T/C (second compound 3.16 µM, first compound 0.0949 µM) 29.2% | viability, T/C (second compound 3.16 µM, first compound 0.3 µM) 12.2% | viability, T/C (second compound 10 µM, first compound 0.00949 µM) 106% | viability, T/C (second compound 10 µM, first compound 0.03 µM) 55.5% | viability, T/C (second compound 10 µM, first compound 0.0949 µM) 28.1% | viability, T/C (second compound 10 µM, first compound 0.3 µM) 9.97%
64.1 nM: IC50 (second compound 0.1 µM)
